Data reported in ChEMBL document CHEMBL1201862, “PubChem BioAssay data set” (2004).
Several values for one entry are separate records, joined by “and”; a condition that tells them apart may be missing. Identical values can stand only once.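 Results reflect a 48-hour exposure of cells in 96-well plates to compound at five concentrations. At the GI50, growth is halved.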 Activity calls are given as the source filed them. Cut-off read from the data, not from the text of the source: active = GI50 up to about 1.1 µM and inactive = higher.

Tests used:
Test in all cases: growth of human tumour cells (NCI), 48 h
A549 = system: A549
UACC-62 = system: UACC-62
SK-MEL-28 = system: SK-MEL-28
SK-MEL-5 = system: SK-MEL-5
CAKI-1 = system: CAKI-1
SW-620 = system: SW-620
EKVX = system: EKVX
786-0 = system: 786-0
NCI-H522 = system: NCI-H522
M14 = system: M14
RPMI-8226 = system: RPMI-8226
HT-29 = system: HT-29
CCRF-CEM = system: CCRF-CEM
KM12 = system: KM12
HOP-92 = system: HOP-92
OVCAR-8 = system: OVCAR-8
MDA-MB-231 = system: MDA-MB-231
MDA-MB-435 = system: MDA-MB-435
MCF7 = system: MCF7

Row | SMILES | GI50 (A549) | GI50 (UACC-62) | GI50 (SK-MEL-28) | GI50 (SK-MEL-5) | GI50 (CAKI-1) | GI50 (SW-620) | GI50 (EKVX) | GI50 (786-0) | GI50 (NCI-H522) | GI50 (M14) | GI50 (RPMI-8226) | GI50 (HT-29) | GI50 (CCRF-CEM) | GI50 (KM12) | GI50 (HOP-92) | GI50 (OVCAR-8) | GI50 (MDA-MB-231) | GI50 (MDA-MB-435) | GI50 (MCF7)
1 | CC1=COC(=O)c2ccccc2N1 | > 100 µM (inactive) | > 100 µM (inactive) | > 100 µM (inactive) | > 100 µM (inactive) | > 100 µM (inactive) | > 100 µM (inactive) | > 100 µM (inactive) | > 100 µM (inactive) | > 100 µM (inactive) | > 100 µM (inactive) | > 100 µM (inactive) | > 100 µM (inactive) | > 100 µM (inactive) | > 100 µM (inactive) | > 100 µM (inactive) | > 100 µM (inactive) | – | – | –
2 | Cc1cccc(-n2c(C)nc3ccc(NC(=S)Nc4ccccc4)cc3c2=O)c1 | – | 50.1 µM (inactive) | > 100 µM (inactive) | 18.2 µM (inactive) | > 100 µM (inactive) | > 100 µM (inactive) | 55.7 µM (inactive) | > 100 µM (inactive) | 51.2 µM (inactive) | – | 35.2 µM (inactive) | 51.9 µM (inactive) | – | 57.3 µM (inactive) | – | 74.3 µM (inactive) | 70.1 µM (inactive) | 56 µM (inactive) | 67 µM (inactive)
3 | O=C(Nc1ccc(C(F)(F)F)cc1[N+](=O)[O-])C(=O)C(C(=O)c1ccc2ccccc2c1)C1OC(=O)c2ccccc21 (stereo not drawn) | 8.51 µM (inactive) | 5.6 µM (inactive) | 3.63 µM (inactive) | 6.76 µM (inactive) | 8.26 µM (inactive) | 4.78 µM (inactive) | 3.32 µM (inactive) | 5.56 µM (inactive) | 7.11 µM (inactive) | 13.6 µM (inactive) | 4.11 µM (inactive) | 9.08 µM (inactive) | 3.7 µM (inactive) | 11.9 µM (inactive) | 0.34 µM (active) | 5.07 µM (inactive) | – | – | –
4 | CN1CC=C(C#CC(C)(C)O)CC1 | > 37.5 µM (inactive) | > 37.5 µM (inactive) | > 37.5 µM (inactive) | > 37.5 µM (inactive) | > 37.5 µM (inactive) | > 37.5 µM (inactive) | > 37.5 µM (inactive) | > 37.5 µM (inactive) | – | > 37.5 µM (inactive) | > 37.5 µM (inactive) | > 37.5 µM (inactive) | > 37.5 µM (inactive) | > 37.5 µM (inactive) | – | > 37.5 µM (inactive) | > 37.5 µM (inactive) | > 37.5 µM (inactive) | > 37.5 µM (inactive)
5 | O=c1cc(O)cc2n1CCC2 | > 100 µM (inactive) | > 100 µM (inactive) | – | > 100 µM (inactive) | > 100 µM (inactive) | > 100 µM (inactive) | > 100 µM (inactive) | > 100 µM (inactive) | > 100 µM (inactive) | > 100 µM (inactive) | > 100 µM (inactive) | > 100 µM (inactive) | > 100 µM (inactive) | > 100 µM (inactive) | – | > 100 µM (inactive) | – | – | –
6 | COc1cc(COC(=O)N(CC(=O)O)c2ccccc2)c([N+](=O)[O-])cc1OC | > 100 µM (inactive) | > 100 µM (inactive) | > 100 µM (inactive) | > 100 µM (inactive) | – | > 100 µM (inactive) | > 100 µM (inactive) | > 100 µM (inactive) | – | > 100 µM (inactive) | > 100 µM (inactive) | > 100 µM (inactive) | > 100 µM (inactive) | > 100 µM (inactive) | > 100 µM (inactive) | > 100 µM (inactive) | – | > 100 µM (inactive) | > 100 µM (inactive)
7 | Cc1cc(O)nc(CNC(=O)Cc2ccccc2)n1 | > 100 µM (inactive) | > 100 µM (inactive) | > 100 µM (inactive) | – | > 100 µM (inactive) | > 100 µM (inactive) | > 100 µM (inactive) | > 100 µM (inactive) | > 100 µM (inactive) | > 100 µM (inactive) | > 100 µM (inactive) | > 100 µM (inactive) | > 100 µM (inactive) | > 100 µM (inactive) | > 100 µM (inactive) | > 100 µM (inactive) | – | – | –
8 | CC(C(O)c1ccccc1)N(C)/N=N/c1nc2c([nH]1)c(=O)n(C)c(=O)n2C (stereo not drawn) | 50.8 µM (inactive) | > 100 µM (inactive) | > 100 µM (inactive) | 66.8 µM (inactive) | 58.6 µM (inactive) | > 100 µM (inactive) | 88.1 µM (inactive) | 74.1 µM (inactive) | – | > 100 µM (inactive) | 48.9 µM (inactive) | 39.6 µM (inactive) | 47.2 µM (inactive) | 46.2 µM (inactive) | – | > 100 µM (inactive) | 92.3 µM (inactive) | 75.3 µM (inactive) | 26.1 µM (inactive)
9 | CC(=O)OCC1OC(n2c(-c3ccccc3)c(C(C)=O)c(-c3cccc4ccccc34)c(C#N)c2=S)C(OC(C)=O)C(OC(C)=O)C1OC(C)=O (stereo not drawn) | > 100 µM (inactive) | – | > 100 µM (inactive) | > 100 µM (inactive) | – | > 100 µM (inactive) | 83.6 µM (inactive) | > 100 µM (inactive) | > 100 µM (inactive) | > 100 µM (inactive) | – | > 100 µM (inactive) | > 100 µM (inactive) | > 100 µM (inactive) | – | > 100 µM (inactive) | > 100 µM (inactive) and 54.1 µM (inactive) | > 100 µM (inactive) | > 100 µM (inactive)
10 | Cn1c(=O)nc2n(-c3ccc(Cl)cc3)c3ccc(Cl)cc3nc-2c1=O | 5.75 µM (inactive) | 1.07 µM (active) | 9.23 µM (inactive) | 1.04 µM (active) | 4.45 µM (inactive) | 4.44 µM (inactive) | 12.9 µM (inactive) | 12.2 µM (inactive) | 6.35 µM (inactive) | 9.06 µM (inactive) | – | 8.79 µM (inactive) | 13.6 µM (inactive) | 14.5 µM (inactive) | 7.05 µM (inactive) | 3.98 µM (inactive) | – | – | –
11 | COc1ccc(/C(=N\NC(=O)C(=O)NN)C(c2ccc(OC)cc2)C2(O)C(=O)Nc3ccccc32)cc1 (stereo not drawn) | 62.4 µM (inactive) | 45.3 µM (inactive) | > 100 µM (inactive) | 22.4 µM (inactive) | > 100 µM (inactive) | > 100 µM (inactive) | > 100 µM (inactive) | 28.1 µM (inactive) | 28.1 µM (inactive) | > 100 µM (inactive) | 69.7 µM (inactive) | 14.5 µM (inactive) | > 10 µM (inactive) | > 100 µM (inactive) | 97.1 µM (inactive) | > 100 µM (inactive) | – | – | –
12 | N#CCCN(c1ccc(C=O)cc1)S(=O)(=O)c1ccccc1 | > 100 µM (inactive) | > 100 µM (inactive) | > 100 µM (inactive) | > 100 µM (inactive) | > 100 µM (inactive) | > 100 µM (inactive) | > 100 µM (inactive) | > 100 µM (inactive) | > 100 µM (inactive) | > 100 µM (inactive) | > 100 µM (inactive) | > 100 µM (inactive) | – | > 100 µM (inactive) | – | > 100 µM (inactive) | – | – | –
13 | O=c1cc(-c2ccccc2)c2cc3c(=O)ccoc3cc2o1 | > 100 µM (inactive) | 62.2 µM (inactive) | > 100 µM (inactive) | 43.7 µM (inactive) | – | > 100 µM (inactive) | > 100 µM (inactive) | > 100 µM (inactive) | – | > 100 µM (inactive) | > 100 µM (inactive) | > 100 µM (inactive) | 48.1 µM (inactive) | – | – | > 100 µM (inactive) | – | – | –
